Columns and labels:
[1] = Stability of cannabinoid entourage and Vitamin E components of the powder concentrate by LCMSMS; assay type: physicochemical; details: powder stored at 21-25° C.
Experimental: At each time period, 0.05 g of powder was dissolved in 10 ml-15 of ethanol, diluted to fall within the analytical range, and injected into the LCMSMS for analysis.

[2] = Stability of cannabinoid compounds and Vitamin E components in Beverage 1 (AB White) by LCMSMS; assay type: physicochemical; details: AB White stored at 8° C.

With CCCCCc1cc(O)c(C/C=C(\C)CCC=C(C)C)c(O)c1 [CBG, cannabigerol] the “Stability of Plant-Derived Cannabinoid Compounds in Powder Concentrate” value (from here on “Stability … in Powder Concentrate”) ([1]; 0 days) was 1.1 mg/g powder, the “Stability … in Powder Concentrate” value ([1]; 1 days) was 1.07 mg/g powder and the “Stability … in Powder Concentrate” value ([1]; 2 days) was 1.08 mg/g powder. For the same compound, the “Stability … in Powder Concentrate” value ([1]; 3 days) was 1.09 mg/g powder, the “Stability … in Powder Concentrate” value ([1]; 5 days) was 1.11 mg/g powder and the “Stability … in Powder Concentrate” value ([1]; 8 days) was 1.07 mg/g powder. For the same compound, the “Stability … in Powder Concentrate” value ([1]; 9 days) was 1.09 mg/g powder, the “Stability … in Powder Concentrate” value ([1]; 10 days) was 1.08 mg/g powder and the “Stability … in Powder Concentrate” value ([1]; 11 days) was 1.14 mg/g powder. For the same compound, the “Stability … in Powder Concentrate” value ([1]; 12 days) was 1.10 mg/g powder, the “Stability … in Powder Concentrate” value ([1]; 15 days) was 1.08 mg/g powder and the “Stability … in Powder Concentrate” value ([1]; 16 days) was 1.06 mg/g powder. For the same compound, the “Stability … in Powder Concentrate” value ([1]; 17 days) was 1.06 mg/g powder, the “Stability … in Powder Concentrate” value ([1]; 18 days) was 1.13 mg/g powder and the “Stability … in Powder Concentrate” value ([1]; 19 days) was 1.14 mg/g powder. The “Stability … in Powder Concentrate” value ([1]; 22 days) was 1.12 mg/g powder, the “Stability … in Powder Concentrate” value ([1]; 23 days) was 1.13 mg/g powder and the “Stability … in Powder Concentrate” value ([1]; 24 days) was 1.09 mg/g powder. The “Stability … in Powder Concentrate” value ([1]; 25 days) was 1.13 mg/g powder, the “Stability … in Powder Concentrate” value ([1]; 26 days) was 1.14 mg/g powder and the “Stability … in Powder Concentrate” value ([1]; 29 days) was 1.10 mg/g powder. For the same compound, the “Stability … in Powder Concentrate” value ([1]; 30 days) was 1.07 mg/g powder, the “Stability … in Powder Concentrate” value ([1]; 60 days) was 1.11 mg/g powder and the “Stability … in Powder Concentrate” value ([1]; 90 days) was 1.13 mg/g powder. For the same compound, the “Stability … in Powder Concentrate” value ([1]; 120 days) was 1.09 mg/g powder, the “Stability … in Powder Concentrate” value ([1]; 150 days) was 1.11 mg/g powder and the “Stability … in Powder Concentrate” value ([1]; 180 days) was 1.07 mg/g powder. The “Stability … in Powder Concentrate” value ([1]; 210 days) was 1.06 mg/g powder, the “Stability … in Powder Concentrate” value ([1]; 240 days) was 1.12 mg/g powder and the “Stability … in Powder Concentrate” value ([1]; 270 days) was 1.15 mg/g powder. For the same compound, the “Stability … in Powder Concentrate” value ([1]; 300 days) was 1.09 mg/g powder, the “Stability … in Powder Concentrate” value ([1]; 330 days) was 1.10 mg/g powder and the “Stability … in Powder Concentrate” value ([1]; 360 days) was 1.09 mg/g powder. The “Stability … in Powder Concentrate” value ([1]; 390 days) was 1.14 mg/g powder, the “Stability … in Powder Concentrate” value ([1]; 420 days) was 1.11 mg/g powder and the “Stability … in Powder Concentrate” value ([1]; 450 days) was 1.06 mg/g powder. The “Stability … in Powder Concentrate” value ([1]; 480 days) was 1.12 mg/g powder, the “Stability … in Powder Concentrate” value ([1]; 510 days) was 1.07 mg/g powder and the “Stability … in Powder Concentrate” value ([1]; 540 days) was 1.07 mg/g powder. The “Stability … in Powder Concentrate” value ([1]; 570 days) was 1.06 mg/g powder, the “Stability of Plant-Derived Cannabinoid Compounds in AB White, 8° C.” value (from here on “Stability … 8° C.”) ([2]; 0 days) was 4.87 µg/mL and the “Stability … 8° C.” value ([2]; 1 days) was 4.74 µg/mL. For the same compound, the “Stability … 8° C.” value ([2]; 2 days) was 4.91 µg/mL, the “Stability … 8° C.” value ([2]; 3 days) was 4.74 µg/mL and the “Stability … 8° C.” value ([2]; 5 days) was 4.88 µg/mL. The “Stability … 8° C.” value ([2]; 8 days) was 4.86 µg/mL, the “Stability … 8° C.” value ([2]; 9 days) was 4.89 µg/mL and the “Stability … 8° C.” value ([2]; 10 days) was 4.77 µg/mL. For the same compound, the “Stability … 8° C.” value ([2]; 11 days) was 4.87 µg/mL, the “Stability … 8° C.” value ([2]; 12 days) was 4.87 µg/mL and the “Stability … 8° C.” value ([2]; 15 days) was 4.81 µg/mL. The “Stability … 8° C.” value ([2]; 16 days) was 4.84 µg/mL, the “Stability … 8° C.” value ([2]; 17 days) was 4.78 µg/mL and the “Stability … 8° C.” value ([2]; 18 days) was 4.81 µg/mL. The “Stability … 8° C.” value ([2]; 19 days) was 4.83 µg/mL, the “Stability … 8° C.” value ([2]; 22 days) was 4.75 µg/mL and the “Stability … 8° C.” value ([2]; 23 days) was 4.89 µg/mL. The “Stability … 8° C.” value ([2]; 24 days) was 4.83 µg/mL, the “Stability … 8° C.” value ([2]; 25 days) was 4.89 µg/mL and the “Stability … 8° C.” value ([2]; 26 days) was 4.77 µg/mL.

From patent US20260130395A1, “Water Dispersible Botanical Compositions” (Aquila Black Limited, priority 2021, published 2026)
